Experimental findings from US20260021193A1, “IMMUNOCONJUGATES AND METHODS” (Immunome, Inc., priority 2022, published 2026) are described below.

Where a name gives a salt, the structure may show the parent alone.

Data set [1] is described as follows: Human hepatocyte clearance (HHEP CL). The conditions noted are these: for CLint scaled / half-life: both sexes, human, hepatocytes. The format is in vitro ADME. Also noted: CLint scaled / half-life: dose or concentration left out as unconfirmed. The procedure:
Suspensions of human hepatocytes (from 10 mixed gender human donors, final concentration 0.5×10^6 cell/mL) in Williams' E medium were incubated for 90 min with a test compound (0.90% acetonitrile and 0.10% DMSO, final concentration […]) and positive controls (7-Ethoxycoumarin, 7-Hydroxycoumarin, 0.90% acetonitrile and 0.10% DMSO, final concentration […]), with constant shaking at about 600 rpm at 37° C. in an incubator at 5% CO2 and 95% humidity. The total volume of incubation was 200 μl. A sample ([…]) was taken out at T0, 15, 30, 60 and 90 min, which was added intermediately to the ice-cold stop solution (acetonitrile with 200 ng/mL of to butamide and labetalol as internal standard) (125 μl), and vortexed at 500 rpm for 10 min, centrifuged at 3220×g for 20 min at 4° C. Analytical plates were sealed and stored at 4° C. until LCMS analysis. Viability of hepatocytes at pre-incubation was determined to be 84.5%.
(§1) Human liver microsome clearance assay assess metabolism by the cytochrome P450 system (phase I enzymes). These enzymes oxidize substrates by incorporating oxygen atoms into hydrocarbons, thus causing the introduction of hydroxyl groups, or N- O- and S-dealkylation of substrates and forming more polar products easier to be cleared. Human hepatocyte clearance assay measures more broadly the overall cellular metabolism of the test compound (phase I and phase II enzyme pathways). Phase II enzymes catalyze the conjugation reaction of xenobiotic metabolites and charged species, such as glutathione, sulfate, glycine, or glucuronic acid to form even more polar compounds for easier clearance.

The subject of data set [2] is Jeko-1. The experiment in a line: CTG assay of payloads, Jeko-1 cells. The format is cell-based, human. The conditions noted are these: 72 h, CellTiter-Glo. An excerpt:
(§2) The CTG assay is a method of determining the number of viable cells in culture based on quantitation of the ATP present, an indicator of metabolically active cells. The cell assay requires the addition of a single reagent, Cell Titer Glo, in which cells are lysed and generation of a luminescent signal is produced. The luminescent signal is proportional to the amount of ATP present. The amount of ATP is directly proportional to the number of cells present in culture. For this assay, cells were ensured to be in log-phase for either Jeko-1 or MDA-MB-468. Cells were transferred to 96 wells and treated with compounds in three-fold serial dilution starting from […] (10 points dilution), for 72 h. Cell viability was analyzed with CellTiter-Glo® Luminescent Cell Viability Assay (Promega) following manufactures' instruction. Percentage of viable cells in each compound concentration was determined by normalizing with the luminescence of vehicle control and plotted into percentage of viability versus dose response curve by nonlinear fit in GraphPad Prism software.
Background: In ATP-based viability assays light output follows the ATP content of the culture.

Data set [3] relates to MDA-MB-468. The data set is described as follows: CTG assay of payloads, MDA-MB-468 cells. Type of data set: cell-based, human. To be noted: Table 1, 72 h, CellTiter-Glo.
Excerpt: as §2

The nature of data set [4]: PAMPA (Parallel Artificial Membrane Permeability Assay). Also on record: dose or concentration left out as unconfirmed. Type of data set: physicochemical. The text has this:
PAMPA is a method which determines the permeability of substances from a donor compartment, through a lipid-infused artificial membrane into an acceptor compartment. See Ottaviani, G.; Martel, S.; Carrupt, P-A. “Parallel Artificial Membrane Permeability Assay: A New Membrane for the Fast Prediction of Passive Human Skin Permeability”, Journal of Medicinal Chemistry, 2006, 49 (13), 3948-3954). A multi-well microtitre plate is used for the donor and a membrane/acceptor compartment is placed on top; the whole assembly is commonly referred to as a “sandwich”. At the beginning of the test, the drug is added to the donor compartment, and the acceptor compartment is drug-free. After an incubation period which may include stirring, the sandwich is separated, and the amount of drug is measured in each compartment. Mass balance allows calculation of drug that remains in the membrane.
The PAMPA was performed by Pion Inc using the GIT-0 lipid and 5 mM donor solution in pH 5.0 and pH 7.4 PRISMA buffer (containing 0.05% DMSO). The higher PAMPA data has been associated with better bystander killing. (Ogitani Y.; Hagihara K.; Oitate, M.; Naito, H.; Agatsuma T. “Bystander killing effect of DS-8201a, a novel anti-human epidermal growth factor receptor 2 antibody-drug conjugate, in tumors with human epidermal growth factor receptor 2 heterogeneity” Cancer Science, 2016, 107 (7), 1039-1046).
A general note: The PAMPA barrier holds no transporters, so it reflects passive diffusion.

Data set [5] is described as follows: Human liver microsome clearance (HLM CL). Also noted: CLint scaled / half-life: dose or concentration left out as unconfirmed. Type of data set: in vitro ADME. To be noted: for CLint scaled / half-life: human, microsomes. The procedure: Working solution was prepared by adding 5 μL of compound and control stock solution (10 mM in dimethyl sulfoxide, DMSO) to 495 μL of acetonitrile (ACN) (intermediate solution concentration: 100 μM, 99% CAN and 1% DMSO. The appropriate concentrations of microsome working solutions were prepared in 100 mM potassium phosphate buffer. After reaction plates containing mixtures of compound and microsomes were pre-incubated at 37° C. for 10 min, […] of 2 mM of NADPH and 2 mM of MgCl2 solution was added to start the reaction. The final concentrations of incubation medium were as follows: microsome—0.5 mg protein/mL, test compound/control […], NADPH—1 mM, MgCl2—1 mM, acetonitrile 0.99%, DMSO 0.01%. Incubations were performed at 37° C. for 60 min. Samples were taken out at T0, T5, T15, T30, T45 and T60, which was added intermediately to the ice-cold stop solution (acetonitrile with 200 ng/mL of to butamide and labetalol as internal standard) (125 μl), shaken for 10 min, centrifuged at 4000 rpm for 20 min at 4° C. Analytical plates were analyzed by LCMS.
as §1

One may read the CLint scaled as the capacity of the preparation to metabolise the compound, expressed as a volume cleared per time. What is called half-life is how long it takes for the measured level to halve. As usually defined, the IC50 is the concentration at which inhibition is half-maximal. One may read the Papp as the rate of passage across a membrane or cell layer, normalised by area and donor concentration. `CC[C@@]1(O)C(=O)OCc2c1cc1n(c2=O)Cc2c-1nc1cc(F)c(C)c3c1c2[C@H](CO)CC3` (single isomer, unassigned) [Compound 1-16]: the results for the CLint scaled in data set [1] and in data set [5] were 33 mL/min/kg and 44 mL/min/kg, respectively. The half-life is 117 min in data set [1] and 28 min in data set [5]. The 50% inhibitory concentration (IC50) in data set [2] (Homo sapiens, JeKo-1, Table 1) amounted to 0.79 nM; in data set [3] (Homo sapiens, MDA-MB-468), 7.2 nM. In addition, the Papp in data set [4] (pH 5) was 40.4 ×10⁻⁶ cm/s; in data set [4] (pH 7.4), 8.5 ×10⁻⁶ cm/s.

For `CC[C@@]1(O)C(=O)OCc2c1cc1n(c2=O)Cc2c-1nc1cc(F)c(C)c3c1c2[C@@H](CO)CC3` (single isomer, unassigned) [Compound 1-17], the CLint scaled in data set [1] turned out to be 17.9 mL/min/kg; in data set [5], 53.2 mL/min/kg. In addition, the half-life in data set [1] was determined as 215 min; in data set [5], 23.5 min. Moreover, the IC50 in data set [2] (Homo sapiens, JeKo-1, Table 1) was found to be 1 nM; in data set [3] (Homo sapiens, MDA-MB-468) it was 7.7 nM. In addition, the results for the Papp in data set [4] (pH 5) and in data set [4] (pH 7.4) were 74.7 ×10⁻⁶ cm/s and 7.8 ×10⁻⁶ cm/s, respectively.

For `CC[C@@]1(O)C(=O)OCc2c1cc1n(c2=O)Cc2c-1nc1cc(F)c(C)c3c1c2[C@](C)(CO)CC3` (single isomer, unassigned) [Compound 3-27], the results for the intrinsic metabolic clearance (CLint scaled) in data set [1] and in data set [5] were 62.4 mL/min/kg and 128 mL/min/kg, respectively. Also, the values for the half-life in data set [1] and in data set [5] were 62 min and 9.7 min, respectively. Moreover, the IC50 came to 2.1 nM in data set [2] (Homo sapiens, JeKo-1, Table 1) and 18.6 nM in data set [3] (Homo sapiens, MDA-MB-468). Further, the apparent permeability (Papp) in data set [4] (pH 5) is 62.2 ×10⁻⁶ cm/s; in data set [4] (pH 7.4), 8.5 ×10⁻⁶ cm/s.

Consider `CC[C@@]1(O)C(=O)OCc2c1cc1n(c2=O)Cc2c-1nc1cc(F)c(C)c3c1c2[C@@](C)(CO)CC3` (single isomer, unassigned) [Compound 3-28], for which the results for the CLint scaled in data set [1] and in data set [5] were 62.9 mL/min/kg and 53.8 mL/min/kg, respectively. Besides, the half-life in data set [1] stood at 61 min; in data set [5], 23 min. The IC50 turned out to be 1.3 nM in data set [2] (Homo sapiens, JeKo-1, Table 1) and 9.9 nM in data set [3] (Homo sapiens, MDA-MB-468). In addition, the results for the Papp in data set [4] (pH 5) and in data set [4] (pH 7.4) were 64 ×10⁻⁶ cm/s and 8.4 ×10⁻⁶ cm/s, respectively.

With `CC[C@@]1(O)C(=O)OCc2c1cc1n(c2=O)Cc2c-1nc1cc(F)c(C)c3c1c2[C@](C)(N1CC[C@@H](O)C1)CC3` (single isomer, unassigned) [Compound 5-40], the CLint scaled in data set [1] was determined as 102 mL/min/kg; in data set [5], 238 mL/min/kg. Besides, the values for the half-life in data set [1] and in data set [5] were 38 min and 5.2 min, respectively. For the same compound, the IC50 in data set [2] (Homo sapiens, JeKo-1, Table 1) came to 10 nM; in data set [3] (Homo sapiens, MDA-MB-468), 69.1 nM. Also, the Papp in data set [4] (pH 5) was determined as 52.2 ×10⁻⁶ cm/s; in data set [4] (pH 7.4), 6 ×10⁻⁶ cm/s.

`CC[C@@]1(O)C(=O)OCc2c1cc1n(c2=O)Cc2c-1nc1cc(F)c(C)c3c1c2[C@](C)(N1CC[C@H](O)C1)CC3` (single isomer, unassigned) [Compound 5-41]: the values for the CLint scaled in data set [1] and in data set [5] were 49.8 mL/min/kg and 92.5 mL/min/kg, respectively. In addition, the half-life in data set [1] turned out to be 77 min; in data set [5], 13.5 min. Further, the IC50 was 11.6 nM in data set [2] (Homo sapiens, JeKo-1, Table 1) and 92.2 nM in data set [3] (Homo sapiens, MDA-MB-468). The Papp in data set [4] (pH 5) amounted to 53.5 ×10⁻⁶ cm/s; in data set [4] (pH 7.4) it was 6.6 ×10⁻⁶ cm/s.

Take `CC[C@@]1(O)C(=O)OCc2c1cc1n(c2=O)Cc2c-1nc1cc(F)c(C)c3c1c2[C@](C)(N(C)CCO)CC3` (single isomer, unassigned) [Compound 7-45, hydrochloride]: the values for the intrinsic metabolic clearance (CLint scaled) in data set [1] and in data set [5] were 92.2 mL/min/kg and 137 mL/min/kg, respectively. Besides, the half-life in data set [1] was 42 min; in data set [5], 9 min. The IC50 worked out at 33.5 nM in data set [2] (Homo sapiens, JeKo-1, Table 1) and 258 nM in data set [3] (Homo sapiens, MDA-MB-468). The Papp in data set [4] (pH 5) came out at 56.6 ×10⁻⁶ cm/s; in data set [4] (pH 7.4), 7.5 ×10⁻⁶ cm/s.

As for `CC[C@@]1(O)C(=O)OCc2c1cc1n(c2=O)Cc2c-1nc1cc(F)c(C)c3c1c2[C@@H](NC(=O)CO)CC3` [Dxd, reference compound], the “HHEP (T1/2)” value in data set [1] (Table 1, human hepatocytes) is reported as “(217) min”. In addition, the “HHEP Cl” value in data set [1] (Table 1, human hepatocytes intrinsic clearance) amounted to 17.8 mL/min/kg. Besides, the “HHEP Cl (T1/2)” value in data set [1] (Table 2, one value per cell) was more than 217. In addition, the IC50 came out at 1.42 nM in data set [2] (Table 1), 0.52 nM in data set [2] (Table 2) and 11.6 nM in data set [3]. Moreover, the “HLM Cl” value in data set [5] (Table 1, human liver microsome clearance) stood at 8.6 mL/min/kg. Besides, the “HLM (T1/2)” value in data set [5] (Table 1, human liver microsomes) is given as “(>145)”. For the same compound, the “HLM Cl (T1/2)” value in data set [5] (Table 2, one value per cell) is on record as 52.2.
